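Protocol summary: plate cells (96-well), add compound at 5 concentrations, incubate 48 h, interpolate endpoints linearly. GI50 is the concentration that inhibits growth by half. TGI: concentration producing complete growth inhibition.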

What all share (test): NCI tumour cell line growth inhibition, 48 h
Test [1] deals with TK-10 renal.
For test [2], the system named is MDA-MB-231 breast.
Test [3] deals with UO-31 renal.
In test [4] the test system is BT-549 breast.
The test system of test [5] is HOP-92 NSCLC.
The test system of test [6] is ACHN renal.
Test [7] concerns SK-MEL-5 melanoma.
Test [8] relates to M14 melanoma.
In test [9] the test system is UACC-257 melanoma.
In test [10] the test system is OVCAR-3 ovarian.

Take `O=C1/C(=C\c2ccc(Cl)cc2)CN(C(=S)Nc2ccccc2)C/C1=C\c1ccc(Cl)cc1`: the GI50 is 1.96 µM in [1]; 0.735 µM in test [2]; 1.21 µM in test [3]; 0.6 µM in test [4]; 1.85 µM in [5]; 1.22 µM in test [6]. Moreover, the GI50 in test [7] was 1.66 µM; in test [8], 1.7 µM; in test [9] it was 1.83 µM; in test [10] it was 0.437 µM. Besides, the TGI is 4.48 µM in test [1]; 5.44 µM in test [2]; 2.56 µM in test [3]; 1.77 µM in test [4]; 4.83 µM in [5]; 2.65 µM in [6]. In addition, the TGI in [7] was found to be 3.12 µM; in test [8] it was 4.2 µM; in [9], 3.78 µM; in test [10] it was 1.49 µM.
In the case of `COc1ccc(N(C)c2nc(C)nc3ccccc23)cc1`, the TGI in test [1] was > 47.5 µM; in test [2] it was > 100 µM; in test [3] it was 60.4 µM; in [4] it was 36.9 µM; in test [5] it was 4.94 µM; in [6] it was > 91.8 µM. Moreover, the TGI is < 0.01 µM in test [7], 14.9 µM in test [8], 27 µM in [9] and < 0.01 µM in test [10]. Moreover, the GI50 is < 0.01 µM in test [2]; 0.0103 µM in [3]; < 0.01 µM in test [4]; < 0.01 µM in test [5]; < 0.01 µM in test [6]; < 0.01 µM in test [7]. Further, the values for the GI50 in test [8], in test [9] and in test [10] were < 0.01 µM, 11.3 µM and < 0.01 µM, respectively.
Consider `Nc1cccc2c1C(=O)N(C1CCC(=O)NC1=O)C2=O` (centres undefined), for which the GI50 in test [1], in test [2], in test [3], in test [4], in test [5] and in test [6] was > 100 µM throughout. The GI50 in [7], in [8], in test [9] and in test [10] was > 100 µM throughout. Further, the TGI in [1], in test [2], in test [3], in test [4], in test [5] and in test [6] was > 100 µM throughout. Besides, the TGI in [7], in [8], in test [9] and in [10] was > 100 µM throughout.
On to `Cc1cc2c(C)c3cc(C)c(N)cc3nc2cc1N`, for which the GI50 in test [1] was 1.31 µM; in [2], 1.09 µM; in test [3], 2.02 µM; in test [4], 3.12 µM; in [5] it was 1.54 µM; in test [6] it was 0.422 µM. Further, the GI50 in test [7] is 1.73 µM; in test [8], 1.83 µM; in test [9], 2.8 µM; in test [10], 1.18 µM. Also, the TGI in test [1] turned out to be 5.39 µM; in test [2], 3.48 µM; in [3] it was 8.79 µM; in [4], 11.6 µM; in test [5], 5.13 µM; in test [6], 3.82 µM. The TGI in [7] amounted to 5.28 µM; in test [8], 6.69 µM; in test [9] it was 9.96 µM; in [10], 5.35 µM.
Take `O=C1CC(=O)N(C2CCCCC2)C(=O)N1c1ccccc1S(=O)(=O)Oc1ccccc1`: the TGI in test [1] was > 100 µM; in test [2], > 100 µM; in test [3], 33 µM; in test [4], > 100 µM; in test [5], > 100 µM; in [6], 36.5 µM. For the same compound, the TGI in [7], in test [8], in [9] and in test [10] was > 100 µM each time.
For `C[C@@H](c1ccc2nccn2c1)n1nnc2ncc(-c3cnn(C)c3)nc21`, the GI50 in test [1] was > 100 µM; in test [2] it was > 100 µM; in [3], > 100 µM; in test [4] it was 91.7 µM; in test [5], 58 µM; in test [6], > 100 µM. Besides, the GI50 in test [7], in [8], in [9] and in test [10] was > 100 µM each time. In addition, the TGI in [1], in test [2], in test [3], in test [4], in [5] and in test [6] was > 100 µM in each case. The TGI in test [7], in [8], in test [9] and in test [10] was > 100 µM in each case.
For the compound `O=S(=O)(c1ccc(NC(=S)N/N=C/c2ccccc2O)cc1)N1CCCCC1`, the TGI in test [1] was 4.23 µM; in test [2], > 44.5 µM; in [3], > 41.9 µM; in test [4] it was > 100 µM; in test [5] it was 66.1 µM; in [6], 10.2 µM. The TGI was found to be 0.176 µM in test [7], 2.78 µM in [8], 14.5 µM in test [9] and 6.34 µM in test [10].
As for `Nc1nc(N)[n+]([O-])c(N)c1NCO`, the TGI in [1], in test [2], in test [3], in [4], in [5] and in test [6] was > 100 µM in each case. Further, the TGI in test [7], in test [8], in test [9] and in test [10] was > 100 µM throughout.
